Assay results as given in ChEMBL document CHEMBL6134768, “Design, synthesis, and structure-activity relationship studies of 6H-benzo[b]indeno[1,2-d]thiophen-6-one derivatives as DYRK1A/CLK1/CLK4/haspin inhibitors” (RSC Med Chem, 2025).

Assays:
[1] = rat, microsomes
[2] = Metabolic stability in rat liver microsomes assessed as half life; format: ADME, Microsome
[3] = biological target: Dual specificity tyrosine-phosphorylation-regulated kinase 1B (Homo sapiens) (UniProt Q9Y463); assay: Inhibition of human GST-tagged DYRK1B extracted from Escherichia coli assessed as residual activity using gamma-32 ATP and KKISGRLSPIMTEQ as substrate at 1 uM by radiometric kinase assay relative to control
[4] = biological target: T1, Dual specificity protein kinase CLK4 (Homo sapiens, UniProt Q9HAZ1); assay: Inhibition of CLK4 (unknown origin) by LanthaScreen kinase binding assay relative to control
Target sequence in this assay (Q9HAZ1 whole entry): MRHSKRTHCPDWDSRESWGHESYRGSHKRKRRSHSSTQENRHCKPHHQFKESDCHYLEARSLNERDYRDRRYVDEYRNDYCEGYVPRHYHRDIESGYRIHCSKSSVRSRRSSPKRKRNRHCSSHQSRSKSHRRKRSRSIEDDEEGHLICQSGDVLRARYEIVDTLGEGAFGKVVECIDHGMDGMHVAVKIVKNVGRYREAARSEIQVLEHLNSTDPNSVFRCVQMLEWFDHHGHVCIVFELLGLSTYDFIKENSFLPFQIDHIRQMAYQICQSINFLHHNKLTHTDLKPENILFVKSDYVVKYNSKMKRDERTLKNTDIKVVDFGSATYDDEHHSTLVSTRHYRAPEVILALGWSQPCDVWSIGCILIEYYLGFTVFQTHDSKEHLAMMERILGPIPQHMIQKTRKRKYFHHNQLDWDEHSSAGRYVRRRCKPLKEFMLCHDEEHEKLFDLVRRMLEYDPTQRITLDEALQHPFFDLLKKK

[5] = biological target: T1, Dual specificity protein kinase CLK4; assay: Inhibition of CLK4 (unknown origin) by radiometric assay relative to control
Target sequence in this assay (Q9HAZ1 whole entry): as above

[6] = biological target: Serine/threonine-protein kinase pim-1 (Homo sapiens) (UniProt P11309); assay: Inhibition of PIM1 (unknown origin) at 0.35 uM by Z-LYTE kinase activity assay relative to control
[7] = biological target: Dual specificity tyrosine-phosphorylation-regulated kinase 1B (Homo sapiens) (UniProt Q9Y463); assay: Inhibition of DYRK1B (unknown origin) at 0.35 uM by radiometric assay relative to control
[8] = biological target: Dual specificity protein kinase CLK1 (Homo sapiens) (UniProt P49759); assay: Inhibition of CLK1 (unknown origin) at 0.35 uM by radiometric assay relative to control
[9] = biological target: T2, Serine/threonine-protein kinase 17A (Homo sapiens) (UniProt Q9UEE5); assay: Inhibition of STK17A (DRAK1) (unknown origin) at 0.35 uM by LanthaScreen kinase binding assay relative to control
T2 sequence (whole entry): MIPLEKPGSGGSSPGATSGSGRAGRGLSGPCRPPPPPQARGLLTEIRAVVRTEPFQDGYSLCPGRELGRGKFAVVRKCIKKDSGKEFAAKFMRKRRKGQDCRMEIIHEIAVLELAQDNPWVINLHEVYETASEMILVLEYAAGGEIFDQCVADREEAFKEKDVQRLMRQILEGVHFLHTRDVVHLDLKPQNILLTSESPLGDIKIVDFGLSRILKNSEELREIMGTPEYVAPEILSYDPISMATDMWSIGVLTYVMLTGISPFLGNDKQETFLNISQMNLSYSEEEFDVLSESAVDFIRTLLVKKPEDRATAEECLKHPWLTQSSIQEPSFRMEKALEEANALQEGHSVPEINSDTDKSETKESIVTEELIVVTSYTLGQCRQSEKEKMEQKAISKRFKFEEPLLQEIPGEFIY

[10] = biological target: T3, Serine/threonine-protein kinase haspin (Homo sapiens, UniProt Q8TF76); assay: Inhibition of GSG2 (haspin) (unknown origin) by Adapta kinase activity assay relative to control
T3 sequence (Q8TF76 whole entry): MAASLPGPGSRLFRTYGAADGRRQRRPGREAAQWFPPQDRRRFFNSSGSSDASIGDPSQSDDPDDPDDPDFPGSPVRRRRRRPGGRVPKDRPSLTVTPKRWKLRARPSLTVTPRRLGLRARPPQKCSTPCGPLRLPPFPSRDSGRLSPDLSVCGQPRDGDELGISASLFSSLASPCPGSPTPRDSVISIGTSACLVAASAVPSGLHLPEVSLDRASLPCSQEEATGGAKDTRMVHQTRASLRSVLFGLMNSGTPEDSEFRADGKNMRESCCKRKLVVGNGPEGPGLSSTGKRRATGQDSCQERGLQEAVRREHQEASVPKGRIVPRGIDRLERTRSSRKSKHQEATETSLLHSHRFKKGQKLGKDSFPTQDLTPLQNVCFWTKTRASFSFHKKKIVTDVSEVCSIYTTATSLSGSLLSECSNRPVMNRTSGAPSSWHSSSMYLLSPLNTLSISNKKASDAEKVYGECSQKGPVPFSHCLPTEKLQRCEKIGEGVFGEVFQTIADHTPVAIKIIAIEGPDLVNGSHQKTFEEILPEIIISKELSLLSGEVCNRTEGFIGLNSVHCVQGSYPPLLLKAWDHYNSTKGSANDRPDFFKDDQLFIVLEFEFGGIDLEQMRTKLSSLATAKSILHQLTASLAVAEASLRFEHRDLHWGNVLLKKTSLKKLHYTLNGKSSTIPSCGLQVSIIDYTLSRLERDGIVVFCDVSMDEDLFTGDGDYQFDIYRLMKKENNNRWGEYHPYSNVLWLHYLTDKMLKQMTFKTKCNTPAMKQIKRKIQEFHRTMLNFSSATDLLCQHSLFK

[11] = biological target: Dual specificity tyrosine-phosphorylation-regulated kinase 1B (Homo sapiens) (UniProt Q9Y463); assay: Inhibition of DYRK1B (unknown origin) at 0.35 uM by Z-LYTE kinase activity assay relative to control
[12] = biological target: T1, Dual specificity protein kinase CLK4; assay: Inhibition of CLK4 (unknown origin) at 0.35 uM by radiometric assay relative to control
Target sequence in this assay (Q9HAZ1 whole entry, looked up): as the sequence (Q9HAZ1 whole entry) above

[13] = biological target: T4, Serine/threonine-protein kinase haspin (Homo sapiens) (UniProt Q8TF76); assay: Inhibition of GSG2 (haspin) (unknown origin) at 0.35 uM by radiometric assay relative to control
T4 sequence (whole entry): T3 sequence (Q8TF76 whole entry)

[14] = biological target: BDNF/NT-3 growth factors receptor (Homo sapiens) (UniProt Q16620); assay: Inhibition of NTRK2 (TRKB) (unknown origin) at 0.35 uM by Z-LYTE kinase activity assay relative to control
[15] = biological target: Dual specificity protein kinase CLK1 (Homo sapiens) (UniProt P49759); assay: Inhibition of CLK1 (unknown origin) at 0.35 uM by Z-LYTE kinase activity assay relative to control
[16] = biological target: Epidermal growth factor receptor (Homo sapiens) (UniProt P00533); assay: Inhibition of EGFR (ErbB1) (unknown origin) at 0.35 uM by Z-LYTE kinase activity assay relative to control
[17] = biological target: SRSF protein kinase 1 (Homo sapiens) (UniProt Q96SB4); assay: Inhibition of SRPK1 (unknown origin) at 0.35 uM by Z-LYTE kinase activity assay relative to control
[18] = biological target: Myosin light chain kinase 2, skeletal/cardiac muscle (Homo sapiens) (UniProt Q9H1R3); assay: Inhibition of MLCK2 (unknown origin) at 0.35 uM by LanthaScreen kinase binding assay relative to control
U-87 MG = assay: cells; details: Homo sapiens, 72 h
[19] = biological target: T5, Dual specificity tyrosine-phosphorylation-regulated kinase 2 (Homo sapiens) (UniProt Q92630); assay: Inhibition of DYRK2 (unknown origin) at 0.35 uM by LanthaScreen kinase binding assay relative to control
T5 sequence (whole entry): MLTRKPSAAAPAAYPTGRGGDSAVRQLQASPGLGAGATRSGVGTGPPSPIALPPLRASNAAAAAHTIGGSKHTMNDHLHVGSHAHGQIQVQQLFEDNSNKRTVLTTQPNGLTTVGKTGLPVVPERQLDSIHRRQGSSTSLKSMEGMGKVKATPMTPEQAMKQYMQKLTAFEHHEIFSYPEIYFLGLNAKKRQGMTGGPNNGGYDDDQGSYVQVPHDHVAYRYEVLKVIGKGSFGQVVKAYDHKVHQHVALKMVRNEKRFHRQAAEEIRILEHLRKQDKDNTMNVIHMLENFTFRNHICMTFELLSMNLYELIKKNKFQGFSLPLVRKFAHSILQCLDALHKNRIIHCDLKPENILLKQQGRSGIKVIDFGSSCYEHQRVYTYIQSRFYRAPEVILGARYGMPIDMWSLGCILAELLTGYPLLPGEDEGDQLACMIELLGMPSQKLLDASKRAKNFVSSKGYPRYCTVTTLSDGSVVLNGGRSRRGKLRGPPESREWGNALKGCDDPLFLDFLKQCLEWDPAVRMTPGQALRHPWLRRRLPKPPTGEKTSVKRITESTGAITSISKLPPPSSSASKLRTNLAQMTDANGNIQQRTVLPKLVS

[20] = biological target: SRSF protein kinase 2 (Homo sapiens) (UniProt P78362); assay: Inhibition of SRPK2 (unknown origin) at 0.35 uM by Z-LYTE kinase activity assay relative to control
[21] = biological target: Serine/threonine-protein kinase 33 (Homo sapiens) (UniProt Q9BYT3); assay: Inhibition of STK33 (unknown origin) at 0.35 uM by LanthaScreen kinase binding assay relative to control
[22] = biological target: T4, Serine/threonine-protein kinase haspin (Homo sapiens); assay: Inhibition of GSG2 (haspin) (unknown origin) at 0.35 uM by Adapta kinase activity assay relative to control
[23] = biological target: T1, Dual specificity protein kinase CLK4; assay: Inhibition of CLK4 (unknown origin) at 0.35 uM by LanthaScreen kinase binding assay relative to control
Target sequence in this assay (Q9HAZ1 whole entry, looked up): as the sequence (Q9HAZ1 whole entry) above

[24] = biological target: Cyclin-dependent kinase 5/CDK5 activator 1 (Homo sapiens) (UniProt Q00535+Q15078); assay: Inhibition of CDK5/p25 (unknown origin) at 0.35 uM by Z-LYTE kinase activity assay relative to control; format: protein-complex assay
[25] = biological target: Homeodomain-interacting protein kinase 1 (Homo sapiens) (UniProt Q86Z02); assay: Inhibition of HIPK1 (Myak) (unknown origin) at 0.35 uM by Z-LYTE kinase activity assay relative to control
[26] = biological target: Dual specificity protein kinase CLK3 (Homo sapiens) (UniProt P49761); assay: Inhibition of CLK3 (unknown origin) at 0.35 uM by Z-LYTE kinase activity assay relative to control
[27] = biological target: T6, Dual specificity tyrosine-phosphorylation-regulated kinase 3 (Homo sapiens) (UniProt O43781); assay: Inhibition of DYRK3 (unknown origin) at 0.35 uM by Z-LYTE kinase activity assay relative to control
T6 sequence (whole entry): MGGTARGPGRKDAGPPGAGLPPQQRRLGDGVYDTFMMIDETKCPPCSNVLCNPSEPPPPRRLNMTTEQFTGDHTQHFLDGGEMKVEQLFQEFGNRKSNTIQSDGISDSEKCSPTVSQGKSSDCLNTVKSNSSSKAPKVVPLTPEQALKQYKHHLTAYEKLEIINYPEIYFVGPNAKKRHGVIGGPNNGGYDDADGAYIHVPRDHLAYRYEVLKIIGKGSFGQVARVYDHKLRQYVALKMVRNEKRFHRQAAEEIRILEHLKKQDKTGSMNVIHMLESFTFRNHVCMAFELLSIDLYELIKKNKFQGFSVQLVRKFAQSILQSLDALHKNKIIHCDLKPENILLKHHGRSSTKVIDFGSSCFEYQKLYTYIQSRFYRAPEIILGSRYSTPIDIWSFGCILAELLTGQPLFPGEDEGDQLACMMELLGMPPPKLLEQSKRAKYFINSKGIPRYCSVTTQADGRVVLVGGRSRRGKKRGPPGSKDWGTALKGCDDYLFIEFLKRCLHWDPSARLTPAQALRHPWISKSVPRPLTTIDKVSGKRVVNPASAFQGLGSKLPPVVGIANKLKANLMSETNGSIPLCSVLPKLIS

[28] = biological target: T3, Serine/threonine-protein kinase haspin; assay: Inhibition of GSG2 (haspin) (unknown origin) by radiometric assay relative to control
[29] = Metabolic stability in rat liver microsomes assessed as degradation; format: ADME, Microsome; details: read-out: Drug degradation
cells = details: Homo sapiens, U373 MG, 72 h

Chain of Dual specificity tyrosine-phosphorylation-regulated kinase 1B (Homo sapiens) (Q9Y463 whole entry, looked up): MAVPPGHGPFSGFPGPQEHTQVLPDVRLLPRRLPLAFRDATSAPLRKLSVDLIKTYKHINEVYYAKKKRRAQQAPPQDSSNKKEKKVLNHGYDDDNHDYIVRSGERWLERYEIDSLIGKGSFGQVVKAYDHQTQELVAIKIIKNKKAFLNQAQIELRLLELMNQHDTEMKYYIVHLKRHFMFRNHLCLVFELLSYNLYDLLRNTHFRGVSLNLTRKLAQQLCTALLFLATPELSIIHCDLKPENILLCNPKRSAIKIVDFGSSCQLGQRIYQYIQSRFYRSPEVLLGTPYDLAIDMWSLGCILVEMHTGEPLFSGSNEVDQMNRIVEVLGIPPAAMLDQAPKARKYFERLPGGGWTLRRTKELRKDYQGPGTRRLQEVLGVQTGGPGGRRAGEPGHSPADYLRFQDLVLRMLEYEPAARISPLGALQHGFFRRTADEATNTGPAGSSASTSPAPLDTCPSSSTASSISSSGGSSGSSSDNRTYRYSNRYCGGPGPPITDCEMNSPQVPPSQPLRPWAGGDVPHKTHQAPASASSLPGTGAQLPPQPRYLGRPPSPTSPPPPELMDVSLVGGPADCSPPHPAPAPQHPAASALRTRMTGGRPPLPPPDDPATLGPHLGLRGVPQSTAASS
Chain of Dual specificity protein kinase CLK1 (Homo sapiens) (P49759 whole entry, looked up): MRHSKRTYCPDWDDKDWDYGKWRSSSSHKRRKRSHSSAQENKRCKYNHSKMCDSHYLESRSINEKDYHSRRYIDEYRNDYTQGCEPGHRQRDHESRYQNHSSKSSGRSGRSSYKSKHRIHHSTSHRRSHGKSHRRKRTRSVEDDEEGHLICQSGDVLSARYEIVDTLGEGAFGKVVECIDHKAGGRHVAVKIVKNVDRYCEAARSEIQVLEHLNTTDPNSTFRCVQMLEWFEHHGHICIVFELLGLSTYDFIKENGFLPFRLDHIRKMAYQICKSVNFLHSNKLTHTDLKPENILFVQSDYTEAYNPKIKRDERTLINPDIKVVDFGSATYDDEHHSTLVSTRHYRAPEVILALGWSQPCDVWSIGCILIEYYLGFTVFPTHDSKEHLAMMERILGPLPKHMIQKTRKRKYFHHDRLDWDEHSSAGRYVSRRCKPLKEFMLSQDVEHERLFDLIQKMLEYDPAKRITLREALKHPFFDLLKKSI
Chain of SRSF protein kinase 2 (Homo sapiens) (P78362 whole entry, looked up): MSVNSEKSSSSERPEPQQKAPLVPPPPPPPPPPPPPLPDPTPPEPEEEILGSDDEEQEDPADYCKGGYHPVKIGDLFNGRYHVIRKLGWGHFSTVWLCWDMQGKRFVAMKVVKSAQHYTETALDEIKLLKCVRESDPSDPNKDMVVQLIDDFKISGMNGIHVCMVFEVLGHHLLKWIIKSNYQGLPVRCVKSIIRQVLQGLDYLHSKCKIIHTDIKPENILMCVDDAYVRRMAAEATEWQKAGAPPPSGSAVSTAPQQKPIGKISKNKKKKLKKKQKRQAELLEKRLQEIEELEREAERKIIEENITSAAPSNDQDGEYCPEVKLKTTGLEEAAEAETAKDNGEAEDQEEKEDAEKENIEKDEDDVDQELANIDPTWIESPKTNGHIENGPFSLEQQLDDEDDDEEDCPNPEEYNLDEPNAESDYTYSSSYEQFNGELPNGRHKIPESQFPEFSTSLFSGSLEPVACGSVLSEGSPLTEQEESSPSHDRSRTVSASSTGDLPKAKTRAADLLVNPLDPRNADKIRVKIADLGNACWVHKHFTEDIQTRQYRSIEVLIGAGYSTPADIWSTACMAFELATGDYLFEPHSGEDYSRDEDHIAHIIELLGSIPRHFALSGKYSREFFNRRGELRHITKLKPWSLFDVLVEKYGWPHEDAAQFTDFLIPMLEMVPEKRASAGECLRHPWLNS
Chain of Homeodomain-interacting protein kinase 1 (Homo sapiens) (Q86Z02 whole entry, looked up): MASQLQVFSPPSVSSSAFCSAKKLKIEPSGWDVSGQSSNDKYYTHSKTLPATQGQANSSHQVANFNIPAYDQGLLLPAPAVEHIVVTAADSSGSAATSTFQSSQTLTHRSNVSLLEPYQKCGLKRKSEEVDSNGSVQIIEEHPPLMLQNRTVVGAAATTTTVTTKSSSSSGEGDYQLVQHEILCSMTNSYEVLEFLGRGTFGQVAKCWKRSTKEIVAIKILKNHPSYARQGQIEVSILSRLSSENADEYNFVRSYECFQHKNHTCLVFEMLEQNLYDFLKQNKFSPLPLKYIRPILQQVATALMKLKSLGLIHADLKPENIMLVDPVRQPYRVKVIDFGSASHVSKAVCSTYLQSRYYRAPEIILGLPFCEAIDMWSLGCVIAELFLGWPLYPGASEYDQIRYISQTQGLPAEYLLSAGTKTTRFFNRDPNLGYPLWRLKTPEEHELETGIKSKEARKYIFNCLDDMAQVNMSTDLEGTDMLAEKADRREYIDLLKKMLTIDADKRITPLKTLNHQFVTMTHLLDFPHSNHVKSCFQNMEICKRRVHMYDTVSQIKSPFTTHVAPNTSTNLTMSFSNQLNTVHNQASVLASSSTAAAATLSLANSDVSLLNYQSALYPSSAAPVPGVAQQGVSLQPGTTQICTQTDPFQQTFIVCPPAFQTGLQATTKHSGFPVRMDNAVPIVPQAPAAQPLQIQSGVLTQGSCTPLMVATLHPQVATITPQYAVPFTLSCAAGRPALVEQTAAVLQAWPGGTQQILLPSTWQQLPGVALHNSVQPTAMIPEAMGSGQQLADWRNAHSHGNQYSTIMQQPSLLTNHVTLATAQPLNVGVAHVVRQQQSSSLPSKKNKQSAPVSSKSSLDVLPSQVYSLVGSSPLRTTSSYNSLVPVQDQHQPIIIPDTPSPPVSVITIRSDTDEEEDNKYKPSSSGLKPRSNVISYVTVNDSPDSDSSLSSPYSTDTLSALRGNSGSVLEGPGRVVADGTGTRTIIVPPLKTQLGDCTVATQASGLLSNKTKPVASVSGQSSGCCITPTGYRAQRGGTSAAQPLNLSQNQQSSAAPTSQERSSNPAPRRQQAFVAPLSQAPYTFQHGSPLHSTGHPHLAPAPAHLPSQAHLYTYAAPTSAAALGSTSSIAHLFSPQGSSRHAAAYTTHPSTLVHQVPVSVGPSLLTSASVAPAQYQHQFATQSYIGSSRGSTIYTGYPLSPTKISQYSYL
Chain of Serine/threonine-protein kinase 33 (Homo sapiens) (Q9BYT3 whole entry, looked up): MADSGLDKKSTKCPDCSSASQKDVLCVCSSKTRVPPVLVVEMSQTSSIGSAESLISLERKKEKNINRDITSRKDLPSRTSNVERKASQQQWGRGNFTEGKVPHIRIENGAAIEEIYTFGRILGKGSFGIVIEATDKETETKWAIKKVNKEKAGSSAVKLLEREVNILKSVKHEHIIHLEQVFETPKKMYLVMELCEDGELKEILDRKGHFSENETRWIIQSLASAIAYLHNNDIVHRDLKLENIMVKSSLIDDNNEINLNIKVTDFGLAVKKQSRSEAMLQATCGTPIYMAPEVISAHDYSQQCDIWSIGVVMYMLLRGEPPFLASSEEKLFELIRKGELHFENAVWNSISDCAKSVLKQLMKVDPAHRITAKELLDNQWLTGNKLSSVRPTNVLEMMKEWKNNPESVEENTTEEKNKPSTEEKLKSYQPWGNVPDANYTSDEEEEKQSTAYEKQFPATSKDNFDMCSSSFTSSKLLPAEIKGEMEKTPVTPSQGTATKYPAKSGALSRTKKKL
Chain of Serine/threonine-protein kinase pim-1 (Homo sapiens) (P11309 whole entry, looked up): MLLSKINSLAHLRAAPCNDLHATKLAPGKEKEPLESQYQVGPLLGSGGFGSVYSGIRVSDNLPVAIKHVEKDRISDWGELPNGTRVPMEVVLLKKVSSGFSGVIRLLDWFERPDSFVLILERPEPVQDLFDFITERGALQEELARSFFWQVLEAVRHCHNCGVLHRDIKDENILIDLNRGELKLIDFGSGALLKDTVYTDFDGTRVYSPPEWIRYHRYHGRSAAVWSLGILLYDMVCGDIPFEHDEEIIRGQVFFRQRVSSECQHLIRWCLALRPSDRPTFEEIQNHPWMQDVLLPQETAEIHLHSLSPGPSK

COc1ccc2c(c1)C(=O)c1sc3ccc(F)cc3c1-2
CLH [1]: 93.9 µL/min/mg
t1/2 [2]: 16.8 min
Activity [3]: 78%
Activity ([3]; INHIBITOR): < 5%

COc1ccc2c(c1)C(=O)c1sc3ccc(O)cc3c1-2
IC50 [4]: 14 nM
IC50 [5]: 26 nM
inhibition [6]: 0%
inhibition [7]: 47%
inhibition [8]: 93%
inhibition [9]: 42%
IC50 [10]: 28 nM
inhibition [11]: 57%
inhibition [12]: 91%
inhibition [13]: 88%
inhibition [14]: 0%
Activity [3]: 93%
inhibition [15]: 16%
inhibition [16]: 0%
inhibition [17]: 6%
inhibition [18]: 15%
IC50 (U-87 MG): 45900 nM
inhibition [19]: 66%
inhibition [20]: 0%
inhibition [21]: 8%
inhibition [22]: 95%
inhibition [23]: 95%
inhibition [24]: 8%
inhibition [25]: 0%
inhibition [26]: 7%
inhibition [27]: 5%
IC50 [28]: 76 nM

COc1cccc2c1C(=O)c1sc3ccccc3c1-2
CLH [1]: > 500 µL/min/mg
t1/2 [2]: < 5 min
Activity ([3]; INHIBITOR): < 5%

COc1ccc2c(c1)C(=O)c1sc3ccc(OC)cc3c1-2
CLH [1]: 122 µL/min/mg
t1/2 [2]: 18.9 min
Activity ([3]; INHIBITOR): < 5%

COc1ccc2c(c1)-c1c(sc3ccccc13)C2=O
CLH [1]: 68.8 µL/min/mg
t1/2 [2]: 33.7 min
Activity ([3]; INHIBITOR): < 5%

COc1ccc2c(c1)-c1c(sc3ccc(O)cc13)C2=O
Activity [3]: 89%
metabolised [29]: 50%

COc1ccc2sc3c(c2c1)-c1c(OC)cccc1C3=O
CLH [1]: > 500 µL/min/mg
t1/2 [2]: < 5 min
Activity [3]: 68%

COc1ccc2sc3c(c2c1)-c1ccccc1C3=O
Activity ([3]; INHIBITOR): 7%

COc1ccc2c(c1)-c1c(sc3ccc(OC)cc13)C2=O
CLH [1]: 92.4 µL/min/mg
Activity ([3]; INHIBITOR): < 5%

COc1ccc2c(c1)C(=O)c1sc3ccccc3c1-2
CLH [1]: 94.8 µL/min/mg
t1/2 [2]: 24.4 min
Activity ([3]; INHIBITOR): < 5%

O=C1c2ccccc2-c2c1sc1ccc(O)cc21
Activity ([3]; INHIBITOR): < 5%
IC50 (U-87 MG): > 100000 nM
IC50 (cells): > 100000 nM

COc1cccc2c1-c1c(sc3ccccc13)C2=O
CLH [1]: 355.5 µL/min/mg
t1/2 [2]: 6.5 min
Activity ([3]; INHIBITOR): < 5%

COc1cccc2c1C(=O)c1sc3ccc(O)cc3c1-2
Activity [3]: 78%
